Assay results taken from patent publication US5242902A, “Defensin peptide compositions and methods for their use” (The Regents of the University of California, priority 1989, dated 1993).

Assays:
[1] = system: NIH 3T3 fibroblasts; assay: In vitro cell growth assay (3H-thymidine incorporation), serum free; assay type: cell-based
Procedure: (§1) Cell growth assays were performed as previously described in Reid et al., (1987), J. Biol. Chem. 262:229-233. Briefly, cells were grown to confluence in 96-well plates in media plus serum and arrested in G0/G1 by either serum starvation for 2-days (epithelial cells) or 8-10 day serum depletion followed by serum starvation for 1-day (fibroblasts). At this point the media was removed and new media with the desired factors was added. Approximately 16 hours later ^3 -thymidine was added and 20 to 28 hours later the cells were washed, lysed and the amount of ^3 H-thymidine incorporated into DNA was measured. In some cases, actual cell counts were performed.
(§2) The growth stimulatory properties of human defensins HNP-1, HNP-2, HNP-3 and rabbit defensins NP-1 and NP-5 in a serum free growth assay system were tested. SIRC rabbit corneal epithelial cells, Nakano mouse lens epithelial cells, and NIH 3T3 fibroblasts were utilized in these studies.

[2] = system: SIRC rabbit corneal epithelial cells; assay: as above; assay type: cell-based
Procedure: as §1, §2

[3] = system: panel of organisms in stationary growth phase; conditions: cited from earlier work
[4] = system: Nakano mouse lens epithelial cells; assay: In vitro cell growth assay (3H-thymidine incorporation, cell counts), serum free; assay type: cell-based
Procedure: as §1, §2

[5] = system: capsaicin-treated corneas; assay type: in vivo
Procedure: Capsaicin-treated corneas from adult rabbits were used to determine the effects of topically applied defensins on corneal re-epithelialization. Capsaicin depletes neuropeptides which have an effect on wound healing (data not shown). The rabbits received 0.4 ml of lidocaine diluted in 2.6 ml of sterile saline delivered subcutaneously between the cranial aspect of the interscapular space. After 10 minutes, 50 mg/kg of capsaicin (100 mg/ml) was delivered through a 11/2 inch 25 gauge needle. Repeat injections of capsaicin was given once a day for four additional days. Three weeks from the last injection bilateral corneal defects were created as described below and the eyes treated topically with test solutions. The cornea was treated with two drops of test solution after creation of the epithelial defect. Upon completion of surgery, the rabbit was returned to its cage onto a warm heating pad. Sequential corneal photographs were taken after installation of fluoroscein and the rate of epithelial wound healing determined.
The effects of topically applied HNP-1 on the epithelial wound healing of neuropeptide depleted rabbit corneas was investigated. Corneas of rabbits treated systemically with capsaicin have impaired epithelial healing. In this model, capsaicin (50 mg/kg) was injected subcutaneously for 5 consecutive days into New Zealand white rabbits. Lidocaine was delivered subcutaneously into the capsaicin injection site 10 minutes prior to the first injection. Three weeks after the injections, the animals were anesthetized (ketamine/xylazine), topical anesthetic applied to the cornea, and the epithelium debrided circumferentially to the limbal margin of clear cornea. Absolute alcohol on microcellulose sponges and a dull #15 Bard Parker blade were used to remove the epithelium. Care was taken that no alcohol ran over the clear corneal edge to damage the limbal epithelium. The corneas were stained with fluorescein and photographed twice daily to monitor re-epithelialization. […]

Substance	suppression at higher concentrations ([1]; 3T3 fibroblast cells, higher concentrations)	stimulatory properties (DNA synthesis) ([1]; 3T3 fibroblasts, presence and absence of insulin (FIG. 10))	stimulatory properties (DNA synthesis) ([2]; corneal epithelial cells (FIG. 9))	effect at higher concentrations ([2]; corneal epithelial cells, higher concentrations)	relative antimicrobial potency among defensins [3]	growth promoting response with bovine serum albumin ([4]; 5 mg/ml BSA added at varying times after stimulation (FIGS. 7 and 8), preliminary)	time to re-epithelialization of treated eye ([5]; 100 μg/ml topical 4 times a day, control eye healed at 6.5 days)	re-epithelialization of treated versus fellow control eye ([5]; 100 μg/ml topical, one rabbit)	effect on the cornea or conjunctiva (tolerability) ([5]; topical, 4 times a day, 40 or 100 μg/ml in sterile water, four rabbits)	actual cell number ([4]; cell counts (FIG. 6))	stimulatory effect on cell number compared with insulin and EGF ([4]; insulin and EGF at concentrations which elicit maximal response (FIG. 6))
HNP-1: human neutrophil defensin peptide isolated from PMN; sequence in Table 1	not observed	stimulatory	stimulatory	suppression observed at higher concentrations	most potent antimicrobial properties	response curve is shifted to the right and that the plateau phase is extended	5.5 days	both corneas re-epithelialized simultaneously	no deleterious effect on the cornea or conjunctiva	–	–
HNP-3: human neutrophil defensin peptide; sequence in Table 1	–	–	–	–	–	–	–	–	–	increase in actual cell number	surpassed that of insulin and EGF
